Test results taken from patent US20220079916A1, “USE OF GERANYLFLAVONE A IN PREPARATION OF DRUG FOR PROMOTING HEALING OF WOUNDS” (HANYI BIO-TECHNOLOGY COMPANY LTD., priority 2019, published 2022).

Key:
[1] = system: whole cortex wound of wild C57 adult male mice; assay: Experiment of skin wound healing (Example 2, wound without bacterial infection); format: in vivo, mice (C57BL/6); conditions: 10 mg/mouse mixed with 5 mg vaseline
Procedure: Wild C57 adult male mice (C57BL/6, purchased from Vital River) were taken and anesthetized, and then subjected to backside unhairing to establish a whole cortex wound with a 6 mm biopsy puncher. Attention should be paid to disinfection for preventing infection.
A normal control group: 5 mice, no administration.
A group administrated with vaseline: vaseline (vaseline for medical purpose, purchased from Tianjin Zhiyuan Chemical Reagent Co., Ltd., the same below), 5 mg vaseline/mouse, 5 mice.
A group administrated with A drug A: 10 mg/mouse, 10 mice (as a flavonoid control, and the drug A was soybean isoflavones).
A group administrated with a drug B: 10 mg/mouse, 10 mice (as a flavonoid control, and the drug B was quercetin).
A group administrated with cannflavin A: cannflavin A, 10 mg/mouse, 10 mice. The administration modes of the latter 4 groups were all application onto the wound, and the administration was conducted once a day. Because vaseline was a commonly used ointment base^[8], in the latter 3 groups, the drug A, the drug B or cannflavin A were respectively well mixed with 5 mg of vaseline and then administered.
Photos were taken to record a wound healing condition of mice on days 0, 4 and 7 of administration, and the healing degree of a wound area was calculated by the PhotoShop software with 1 cm^2 as a scale. […]

[2] = system: whole cortex wound inoculated with Staphylococcus aureus, mice with type II diabetes; assay: Healing of skin wound infected with Staphylococcus aureus (2), comparison with flavonoid controls (Example 4); format: in vivo, mice (C57BL/6); conditions: 10 mg/mouse mixed with 5 mg vaseline, once a day
Text: normal mice as control and mice with type II diabetes established according to the method of Example 1 were taken, anesthetized, and then subjected to backside unhairing to establish a whole cortex wound with a 6 mm biopsy puncher. The mice were inoculated with 1.5×10^6 CFU/ml of Staphylococcus aureus. […]
The experimental method was the same as that of Example 3, except that the grouping and administration were as follows:
A normal control group: no administration, 5 mice.
A type II diabetes control group administrated with vaseline: vaseline, 5 mg vaseline/mouse, 5 mice.
A type II diabetes group administrated with vaseline+a drug A: 10 mg/mouse, 10 mice (as a flavonoid control, and the drug A was soybean isoflavones).
A type II diabetes group administrated with vaseline+a drug B: 10 mg/mouse, 10 mice (as a flavonoid control, and the drug B was quercetin).
A type II diabetes group administrated with vaseline+cannflavin A: […], 10 mice.
The aforementioned 5 groups were all inoculated with Staphylococcus aureus according to the previous step (1).
The administration modes of the latter 4 groups were all application onto the wound, and the administration was conducted once a day. In the latter 3 groups, the drug A, the drug B or cannflavin A were respectively well mixed with 5 mg of vaseline as an ointment base and then administered.

## O=c1c(O)c(-c2ccc(O)c(O)c2)oc2cc(O)cc(O)c12 [drug B, quercetin, reference compound]
[1]; applied onto the wound once a day, normal mice, no infection
  time in which the wound basically healed: about 4 days
[1]; once a day, days 0, 4 and 7
  promoting the healing degree of wounds without bacterial infection, compared among drugs, vaseline and control: no significant difference
[2]
  help to wound healing: could not help wound healing
